{
  "source": "patent US6693120B1",
  "about": "“Spray drying of thrombin inhibitors” (Abbott GmbH & Co. KG, priority 1999, dated 2004)",
  "type_in_all_cases": "physicochemical",
  "key": {"[1]": {"assay": "Hygroscopicity: weight gain on storage in desiccators at constant humidity", "parameters": "unit not given here", "settings": "vacuum-dried", "experimental": "To determine the hygroscopicity, samples of the dry active substance are stored in desiccators in which a constant humidity has been set by saturated salt solutions, at constant temperature. The weight change is determined by weighing at intervals of a few days. The weight gain is determined by the following formula: [formula]"}, "[2]": {"assay": "Storage stability at 70° C., 1 bar in an open vessel (HPLC)"}, "[3]": {"assay": "HPLC content of the active substance after drying"}},
  "data": [
    {"substance": "N-((Hydroxycarbonyl)methylene)-(R)-cyclohexylalanyl-(S)-3,4-dehydroproline 6-Amidino-3-picolinylamide Hydrochloride [Betaine × HCl]", "values": [
      {"measurement": "weight gain", "setting": "[1]; 45% R.H., 0 days", "value": 0},
      {"measurement": "weight gain", "setting": "[1]; 45% R.H., 3 days", "value": 0.28},
      {"measurement": "weight gain", "setting": "[1]; 45% R.H., 6 days", "value": 0.31},
      {"measurement": "weight gain", "setting": "[1]; 45% R.H., 9 days", "value": 0.26},
      {"measurement": "weight gain", "setting": "[1]; 45% R.H., 14 days", "value": 0.23},
      {"measurement": "weight gain", "setting": "[1]; 45% R.H., 21 days", "value": 0.26},
      {"measurement": "weight gain", "setting": "[1]; 65% R.H., 0 days", "value": 0},
      {"measurement": "weight gain", "setting": "[1]; 65% R.H., 3 days", "value": 3.50},
      {"measurement": "weight gain", "setting": "[1]; 65% R.H., 6 days", "value": 3.86},
      {"measurement": "weight gain", "setting": "[1]; 65% R.H., 9 days", "value": 3.59},
      {"measurement": "weight gain", "setting": "[1]; 65% R.H., 14 days", "value": 3.54},
      {"measurement": "weight gain", "setting": "[1]; 65% R.H., 21 days", "value": 3.45},
      {"measurement": "weight gain", "setting": "[1]; 75% R.H., 0 days", "value": 0},
      {"measurement": "weight gain", "setting": "[1]; 75% R.H., 3 days", "value": 7.60},
      {"measurement": "weight gain", "setting": "[1]; 75% R.H., 6 days", "value": 9.31},
      {"measurement": "weight gain", "setting": "[1]; 75% R.H., 9 days", "value": 7.98},
      {"measurement": "weight gain", "setting": "[1]; 75% R.H., 14 days", "value": 7.84},
      {"measurement": "weight gain", "setting": "[1]; 75% R.H., 21 days", "value": 7.86},
      {"measurement": "weight gain", "setting": "[1]; 86% R.H., 0 days", "value": 0},
      {"measurement": "weight gain", "setting": "[1]; 86% R.H., 3 days", "value": 15.51},
      {"measurement": "weight gain", "setting": "[1]; 86% R.H., 6 days", "value": 20.23},
      {"measurement": "weight gain", "setting": "[1]; 86% R.H., 9 days", "value": 16.66},
      {"measurement": "weight gain", "setting": "[1]; 86% R.H., 14 days", "value": 16.61},
      {"measurement": "weight gain", "setting": "[1]; 86% R.H., 21 days", "value": 16.14},
      {"measurement": "weight gain", "setting": "[1]; 93% R.H., 0 days", "value": 0},
      {"measurement": "weight gain", "setting": "[1]; 93% R.H., 3 days", "value": 19.73},
      {"measurement": "weight gain", "setting": "[1]; 93% R.H., 6 days", "value": 20.34},
      {"measurement": "weight gain", "setting": "[1]; 93% R.H., 9 days", "value": 18.97},
      {"measurement": "weight gain", "setting": "[1]; 93% R.H., 14 days", "value": 19.11},
      {"measurement": "weight gain", "setting": "[1]; 93% R.H., 21 days", "value": 18.78},
      {"measurement": "active substance content based on initial active substance content", "setting": "[2]; 0 days", "value": 100, "unit": "HPLC % areas"},
      {"measurement": "active substance content based on initial active substance content", "setting": "[2]; 7 days", "value": 98.5, "unit": "HPLC % areas"},
      {"measurement": "active substance content based on initial active substance content", "setting": "[2]; 14 days", "value": 97.5, "unit": "HPLC % areas"},
      {"measurement": "HPLC content of the active substance in % areas", "setting": "[3]; spray dried", "value": 98.5, "unit": "%"},
      {"measurement": "byproducts", "setting": "[3]; spray dried", "value": "no additional"},
      {"measurement": "HPLC content of the active substance in % areas", "setting": "[3]; vacuum dried (60° C./12 h)", "value": 97.8, "unit": "%"},
      {"measurement": "byproducts", "setting": "[3]; vacuum dried (60° C./12 h)", "value": "additional byproducts"}
    ]},
    {"substance": "N-((Hydroxycarbonyl)methylen)-(R)-cyclohexylalanyl-(S)-3,4-dehydroproline 6-Amidino-3-picolinylamide Dihydrochloride [Betaine × 2HCl]", "values": [
      {"measurement": "active substance content based on initial active substance content", "setting": "[2]; 0 days", "value": 100, "unit": "HPLC % areas"},
      {"measurement": "active substance content based on initial active substance content", "setting": "[2]; 7 days", "value": 99.7, "unit": "HPLC % areas"},
      {"measurement": "active substance content based on initial active substance content", "setting": "[2]; 14 days", "value": 99.7, "unit": "HPLC % areas"}
    ]},
    {"substance": "N-((Hydroxycarbonyl)methylene)-(R)-cyclohexylalanyl-(S)-3,4-dehydroproline 6-Amidino-3-Picoli-nylamide [Betaine (n = 0)]", "values": [
      {"measurement": "active substance content based on initial active substance content", "setting": "[2]; 0 days", "value": 100, "unit": "HPLC % areas"},
      {"measurement": "active substance content based on initial active substance content", "setting": "[2]; 7 days", "value": 92.5, "unit": "HPLC % areas"},
      {"measurement": "active substance content based on initial active substance content", "setting": "[2]; 14 days", "value": 88.6, "unit": "HPLC % areas"}
    ]}
  ]
}
